Laboratory results: ChEMBL document CHEMBL1201862, “PubChem BioAssay data set” (2004)
Activity calls are given as the source filed them.

Key:
[1] = biological target: Serine/threonine-protein phosphatase PP1-alpha catalytic subunit (Homo sapiens, UniProt P62136); test: inhibition of protein phosphatase 1 activity – biochemical, fluorescence, dose response (AID 2403);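 also: phosphatase turnover of OMFP into fluorescent 3-O-methylfluorescein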
Streptococcus = test: GAS UMAA2166 growth inhibition – luminescence, BacTiterGlo, counter-screen for streptokinase expression inhibitor project, dose response (AID 1915); type: functional, organism-based;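 also: potency for reduction of bacterial viability or growth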
INS1 = test: INS-1E survival protection against cytokine death – cell-based, luminescence, retest, dose response (AID 449756); type: functional; details: Rattus norvegicus;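 also: cell death triggered by IL-1 beta plus TNF-alpha plus IFN-gamma mixture; protective hits raise ATP signal compared with cytokine alone wells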
[2] = system: Streptococcus sp. 'group A'; test: Streptococcus pyogenes SK(-)GAS viability under kanamycin – luminescence, BacTiterGlo, confirmation, counter-screen for streptokinase expression inhibitor project, dose response (AID 1900); type: functional, organism-based
[3] = IC50 of Artemis nuclease activity blockers – biochemical, fluorescence intensity, dose response (AID 720701); type: functional;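 also: Artemis endonuclease enzyme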
[4] = decrease of insulin promoter-GFP reporter – imaging, high-content screening, mouse beta cells (AID 1628); type: functional; details: MIN6
[5] = biological target: Serine/threonine-protein phosphatase (Homo sapiens, UniProt Q9BPW0); test: Counterscreen for inhibitors of PP1: fluorescence-based biochemical high throughput dose response assay to identify inhibitors of Protein Phosphatase 5 (PP5). [Related pubchem assays: 2034 (Summary (PP5 inhibitors)), 1987 (PP5 inhibitors in singlate), 2235 (PP1 inhibitors in singlate)]
Chain of Serine/threonine-protein phosphatase (Q9BPW0 whole entry): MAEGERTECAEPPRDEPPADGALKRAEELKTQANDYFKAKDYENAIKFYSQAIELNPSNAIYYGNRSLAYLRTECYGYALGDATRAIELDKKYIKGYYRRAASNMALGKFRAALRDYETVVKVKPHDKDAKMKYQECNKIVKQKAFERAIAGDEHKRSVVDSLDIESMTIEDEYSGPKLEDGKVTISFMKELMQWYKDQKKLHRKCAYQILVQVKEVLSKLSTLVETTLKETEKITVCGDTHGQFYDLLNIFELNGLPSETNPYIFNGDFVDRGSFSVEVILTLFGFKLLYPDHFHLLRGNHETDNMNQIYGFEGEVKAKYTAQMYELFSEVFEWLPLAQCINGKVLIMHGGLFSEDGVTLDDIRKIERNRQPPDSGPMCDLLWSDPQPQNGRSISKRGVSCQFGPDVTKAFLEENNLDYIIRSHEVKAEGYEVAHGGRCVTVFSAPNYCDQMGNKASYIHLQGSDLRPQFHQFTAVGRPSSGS

[6] = MIN6 cell viability loss – mouse insulinoma, cytotoxicity control, dose response (AID 2122); type: functional;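 also: confirmatory high-throughput counterscreen run to flag cytotoxic compounds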
[7] = Luminescence Cell-Based Dose Response HTS to Identify Inhibitors of 5'UTR Stem-Loop Driven Prion Protein mRNA Translation in H4 Neuroglioblastoma Cells. [Related pubchem assays: 1827 (Project Summary), 1813 (Primary HTS)]; type: functional
[8] = CCR5-tropic HIV-1 fusion blockers – cell-based, CCR5-tropic Env, dose response (AID 2279); type: functional
[9] = alpha-synuclein stem-loop luciferase translation blockers – H4 neuroglioma cells, luminescence, confirmation (AID 1988); type: functional, cell-based
[10] = luciferase reporter signal suppression in cells – H4 neuroglioma cells, luminescence, dose response (AID 1990); type: functional, cell-based
HEK293 = test: Fluorescence-based counterscreen for potentiators or agonists of NPY-Y2: cell-based high-throughput dose response assay to identify inhibitors of cyclic nucleotide gated ion channel (CNGC) activity. In this assay, the parental HEK293 cell line transfected with a cyclic-nucleotide gated ion channel (CNGC)-based cAMP sensor is used to measure inhibition of isoproterenol-induced CNGC activity by test compound.; type: functional; details: Homo sapiens;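 also: stimulus is 1 µM isoproterenol at EC100 plus PDE inhibitor Ro 20-1724 at 25 µM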
[11] = viability loss in human Jurkat cells – cell-based, luminescence, cytotoxicity control for P. falciparum gametocyte viability project, dose response (AID 1117277); type: functional;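 also: potency reflects loss of cellular ATP meaning fewer viable cells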
[12] = viability inhibitors of stage V gametocytes – luminescence, dose response (AID 1117278); type: functional, cell-based;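 also: gametocytes exposed to compound for 24 hours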
[13] = biological target: Neuropeptide Y receptor type 1 (Homo sapiens, UniProt P25929); test: Fluorescence-based counterscreen for agonists of NPY-Y2: cell-based high-throughput dose response assay for agonists of NPY-Y1.; type: functional
Chain of Neuropeptide Y receptor type 1 (P25929 whole entry): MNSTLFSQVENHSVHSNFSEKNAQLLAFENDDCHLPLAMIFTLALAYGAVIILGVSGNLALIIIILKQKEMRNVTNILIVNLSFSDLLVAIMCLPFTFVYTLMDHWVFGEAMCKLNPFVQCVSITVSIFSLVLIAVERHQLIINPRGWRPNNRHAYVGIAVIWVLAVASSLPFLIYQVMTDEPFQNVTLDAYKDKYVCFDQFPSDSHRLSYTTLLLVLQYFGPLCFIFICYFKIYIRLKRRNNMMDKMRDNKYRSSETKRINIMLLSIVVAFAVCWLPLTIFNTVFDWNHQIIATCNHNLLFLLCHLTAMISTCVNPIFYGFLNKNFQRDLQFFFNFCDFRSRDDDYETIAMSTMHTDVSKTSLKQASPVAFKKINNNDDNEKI

[14] = biological target: Neuropeptide Y receptor type 2 (Homo sapiens, UniProt P49146); test: Fluorescence-based cell-based high-throughput dose response assay for agonists of NPY-Y2. [Related pubchem assays: 1703 (Screening assay (CNGC inhibitors).), 1359 (Screening assay (NPY-Y2 potentiators or agonists).), 1304 (Screening assay (NPY-Y1 potentiators or agonists).), 1710 (Screening assay (NPY-Y2 agonists).), 1791 (Summary AID.)]; type: functional
Cysteine protease ATG4B = biological target: T1, Cysteine protease ATG4B (Homo sapiens, UniProt Q9Y4P1); type: functional;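 also: Fluorescence-based dose-response confirmation assay measuring inhibition of ATG4B activity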
T1 sequence (Q9Y4P1 whole entry): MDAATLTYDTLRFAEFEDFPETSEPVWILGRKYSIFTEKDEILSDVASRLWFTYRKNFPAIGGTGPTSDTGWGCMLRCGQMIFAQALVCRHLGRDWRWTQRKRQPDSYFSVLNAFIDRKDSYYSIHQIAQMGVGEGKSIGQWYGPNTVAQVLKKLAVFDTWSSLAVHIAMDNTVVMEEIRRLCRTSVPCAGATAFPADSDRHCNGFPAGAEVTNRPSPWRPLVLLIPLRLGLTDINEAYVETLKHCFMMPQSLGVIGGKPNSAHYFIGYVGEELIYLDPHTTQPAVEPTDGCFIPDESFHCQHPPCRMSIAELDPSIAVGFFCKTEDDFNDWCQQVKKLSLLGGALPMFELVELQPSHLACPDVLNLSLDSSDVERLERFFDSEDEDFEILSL

Phospholipase A2 = Phospholipase A2 (Homo sapiens, UniProt P04054); type: functional;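 also: confirmatory dose-response counterscreen on phospholipase A2, testing hits that came from an ultra-high-throughput screen for ATG4B inhibitors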
[15] = biological target: T2, Probable nicotinate-nucleotide adenylyltransferase (Staphylococcus aureus (strain N315), UniProt P65502); type: functional, Staphylococcus aureus subsp. aureus N315; details: read-out: IC50_Mean;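 as to IC50 Mean: confirmatory dose-response retesting of NadD inhibitor hits first found in an ultra-high-throughput screen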
T2 sequence (P65502 whole entry): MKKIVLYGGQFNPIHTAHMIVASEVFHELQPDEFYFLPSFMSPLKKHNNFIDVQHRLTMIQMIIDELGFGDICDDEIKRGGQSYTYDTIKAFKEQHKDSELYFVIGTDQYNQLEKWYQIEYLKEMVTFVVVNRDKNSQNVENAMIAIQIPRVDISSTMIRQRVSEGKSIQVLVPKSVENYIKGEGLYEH

[16] = antiviral protection against BTV-induced cell death – arbovirus, BSR cells, confirmation (AID 1250); type: functional;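 also: protection from viral cytopathic effect measured as cell viability by ATP luminescence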
[17] = biological target: T2, Probable nicotinate-nucleotide adenylyltransferase; type: functional, Staphylococcus aureus subsp. aureus N315
[18] = biological target: Nuclear receptor subfamily 5 group A member 2 (Homo sapiens, UniProt O00482); type: functional, cell-based;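 also: HEK293T cells transfected with LRH-1 and a StAR promoter luciferase reporter; potency for inhibitors that lower LRH-1 driven reporter light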
Chain of Nuclear receptor subfamily 5 group A member 2 (O00482 whole entry): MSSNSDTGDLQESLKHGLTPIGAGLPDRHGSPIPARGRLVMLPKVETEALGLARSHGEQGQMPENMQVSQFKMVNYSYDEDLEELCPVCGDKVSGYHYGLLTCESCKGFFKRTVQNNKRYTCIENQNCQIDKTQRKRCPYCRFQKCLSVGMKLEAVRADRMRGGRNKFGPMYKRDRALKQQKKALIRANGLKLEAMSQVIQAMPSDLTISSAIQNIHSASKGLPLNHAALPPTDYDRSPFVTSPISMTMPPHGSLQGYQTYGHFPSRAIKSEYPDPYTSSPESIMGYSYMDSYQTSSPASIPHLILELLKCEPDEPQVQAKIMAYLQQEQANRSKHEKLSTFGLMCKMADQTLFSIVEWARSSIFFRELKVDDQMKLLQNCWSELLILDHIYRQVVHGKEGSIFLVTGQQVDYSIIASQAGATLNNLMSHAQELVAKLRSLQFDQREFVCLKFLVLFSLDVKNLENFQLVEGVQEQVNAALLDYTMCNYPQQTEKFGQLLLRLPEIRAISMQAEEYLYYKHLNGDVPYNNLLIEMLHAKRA

[19] = mitochondrial function rescue without frataxin homolog – Friedreich's ataxia, plus single-dose screen, dose response (AID 1465); type: functional;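 also: yeast depleted of Yfh1p frataxin homolog grown on glycerol needing respiration; WST-1 tetrazolium dye reduction as measure of cellular dehydrogenase metabolic activity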
[20] = nonselective StAR promoter luciferase inhibitors – cell-based, luminescence, luciferase reporter, counter-screen for LRH-1 inverse agonist project, dose response (AID 651969); type: functional
Steroidogenic factor 1 = Steroidogenic factor 1 (Homo sapiens, UniProt Q13285); test: Counterscreen for inverse agonists of the liver receptor homolog-1 (LRH-1; NR5A2): Luminescence-based cell-based high throughput dose response assay to identify inverse agonists of the Steroidogenic Factor 1 Nuclear Receptor (SF1; NR5A1).; type: functional
Chain of Steroidogenic factor 1 (Q13285 whole entry): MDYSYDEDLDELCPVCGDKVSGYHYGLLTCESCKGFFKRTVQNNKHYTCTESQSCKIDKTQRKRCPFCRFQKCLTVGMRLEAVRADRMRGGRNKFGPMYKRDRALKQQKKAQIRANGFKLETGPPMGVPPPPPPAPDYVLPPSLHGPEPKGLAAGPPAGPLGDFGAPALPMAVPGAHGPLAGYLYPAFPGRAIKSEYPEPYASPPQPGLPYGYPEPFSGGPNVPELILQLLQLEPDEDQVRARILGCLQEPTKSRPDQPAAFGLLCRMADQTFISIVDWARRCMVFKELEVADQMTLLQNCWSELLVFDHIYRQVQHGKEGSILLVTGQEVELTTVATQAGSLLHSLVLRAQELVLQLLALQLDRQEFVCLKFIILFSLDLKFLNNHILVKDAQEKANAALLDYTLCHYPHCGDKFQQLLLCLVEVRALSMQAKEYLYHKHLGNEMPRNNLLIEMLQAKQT

[21] = biological target: Epstein-Barr nuclear antigen 1 (Epstein-Barr virus (strain B95-8) (HHV-4) (Human herpesvirus 4), UniProt P03211); test: inhibition of EBV nuclear antigen 1 DNA binding – biochemical, fluorescence polarization, 1536-well, dose response (AID 2381); design: species or system human gammaherpesvirus 4;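 also: fluorescence polarization of a Cy5 DNA probe bound by EBNA-1 protein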
Chain of Epstein-Barr nuclear antigen 1 (P03211 whole entry): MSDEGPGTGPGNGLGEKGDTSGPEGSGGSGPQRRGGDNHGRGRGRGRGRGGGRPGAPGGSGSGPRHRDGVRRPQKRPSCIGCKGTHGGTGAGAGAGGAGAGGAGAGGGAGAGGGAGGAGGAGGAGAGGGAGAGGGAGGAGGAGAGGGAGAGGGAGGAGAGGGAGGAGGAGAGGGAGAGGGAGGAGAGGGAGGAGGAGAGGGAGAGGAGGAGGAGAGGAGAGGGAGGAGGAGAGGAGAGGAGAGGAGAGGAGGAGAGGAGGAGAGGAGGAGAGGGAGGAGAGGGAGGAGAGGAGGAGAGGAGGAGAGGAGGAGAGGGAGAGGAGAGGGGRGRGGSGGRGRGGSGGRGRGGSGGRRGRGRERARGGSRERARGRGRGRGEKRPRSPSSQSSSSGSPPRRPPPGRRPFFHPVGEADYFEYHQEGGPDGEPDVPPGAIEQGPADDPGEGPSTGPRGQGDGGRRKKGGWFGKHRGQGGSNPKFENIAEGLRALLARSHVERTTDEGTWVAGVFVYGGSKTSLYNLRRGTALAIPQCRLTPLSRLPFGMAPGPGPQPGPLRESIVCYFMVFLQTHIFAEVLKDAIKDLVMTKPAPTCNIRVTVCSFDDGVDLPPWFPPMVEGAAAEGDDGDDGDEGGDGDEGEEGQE

[22] = biological target: Lytic switch protein BZLF1 (Epstein-Barr virus (strain B95-8) (HHV-4) (Human herpesvirus 4), UniProt P03206); test: inhibition of BZLF1 ZTA DNA binding – biochemical, fluorescence polarization, Epstein-Barr virus, 1536-well, counter-screen for EBNA-1 inhibitor project, dose response (AID 2377); design: species or system human gammaherpesvirus 4;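 also: fluorescence polarization of Cy5-labelled ZRE DNA probe bound by purified Zta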
Chain of Lytic switch protein BZLF1 (P03206 whole entry): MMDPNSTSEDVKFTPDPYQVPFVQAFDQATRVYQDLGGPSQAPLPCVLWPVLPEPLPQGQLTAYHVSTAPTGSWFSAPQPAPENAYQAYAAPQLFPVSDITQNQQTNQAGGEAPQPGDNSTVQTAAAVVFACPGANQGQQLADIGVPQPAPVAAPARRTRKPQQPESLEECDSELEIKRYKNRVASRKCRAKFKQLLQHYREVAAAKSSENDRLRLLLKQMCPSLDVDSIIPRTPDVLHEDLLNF

NADPH oxidase 1 = NADPH oxidase 1 (Homo sapiens, UniProt Q9Y5S8); type: functional, cell-based;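 also: Cell-based assay with luminescence read-out, IC50 derived from inhibitor dose-response curves; intracellular ROS from endogenous NOX1 in intact HT29 colon cancer cells; potency of inhibitors that lower the ROS luminescence signal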
Chain of NADPH oxidase 1 (Q9Y5S8 whole entry): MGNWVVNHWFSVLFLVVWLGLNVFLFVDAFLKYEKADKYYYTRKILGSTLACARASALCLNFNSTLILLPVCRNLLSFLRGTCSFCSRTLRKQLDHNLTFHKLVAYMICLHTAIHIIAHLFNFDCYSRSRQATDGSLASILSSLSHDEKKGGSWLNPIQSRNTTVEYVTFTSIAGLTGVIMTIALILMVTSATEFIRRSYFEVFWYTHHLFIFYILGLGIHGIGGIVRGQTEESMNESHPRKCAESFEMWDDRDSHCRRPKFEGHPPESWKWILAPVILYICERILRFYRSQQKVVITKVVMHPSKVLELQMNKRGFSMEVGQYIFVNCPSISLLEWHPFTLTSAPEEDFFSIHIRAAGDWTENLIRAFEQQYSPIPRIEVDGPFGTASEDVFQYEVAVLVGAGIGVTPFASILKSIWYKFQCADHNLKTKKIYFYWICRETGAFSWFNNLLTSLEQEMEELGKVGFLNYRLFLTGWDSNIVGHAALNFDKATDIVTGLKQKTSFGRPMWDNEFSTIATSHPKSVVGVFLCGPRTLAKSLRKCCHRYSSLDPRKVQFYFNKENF

[23] = alpha-synuclein stem-loop translation blockers – luminescence, H4 neuroglioblastoma cells, dose confirmation, confirmation (AID 2454); type: functional, cell-based;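 also: H4 neuroglioblastoma cells carrying an alpha-synuclein 5'UTR luciferase reporter; potency for inhibition of the luciferase signal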
cells = type: functional, cell-based
[24] = luciferase reporter signal reduction – luminescence, H4-C neuroglioblastoma cells, dose response (AID 2458); type: functional, cell-based;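 also: H4 neuroglioblastoma cells stably carrying a luciferase reporter gene fusion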
[25] = biological target: Mothers against decapentaplegic homolog 3 (Homo sapiens, UniProt P84022); test: blockers of Smad3 complex formation in lysate – cell lysate, secondary confirmation, chemiluminescent ELISA, HEK293 lysate, dose response (AID 1058); type: functional
Chain of Mothers against decapentaplegic homolog 3 (P84022 whole entry): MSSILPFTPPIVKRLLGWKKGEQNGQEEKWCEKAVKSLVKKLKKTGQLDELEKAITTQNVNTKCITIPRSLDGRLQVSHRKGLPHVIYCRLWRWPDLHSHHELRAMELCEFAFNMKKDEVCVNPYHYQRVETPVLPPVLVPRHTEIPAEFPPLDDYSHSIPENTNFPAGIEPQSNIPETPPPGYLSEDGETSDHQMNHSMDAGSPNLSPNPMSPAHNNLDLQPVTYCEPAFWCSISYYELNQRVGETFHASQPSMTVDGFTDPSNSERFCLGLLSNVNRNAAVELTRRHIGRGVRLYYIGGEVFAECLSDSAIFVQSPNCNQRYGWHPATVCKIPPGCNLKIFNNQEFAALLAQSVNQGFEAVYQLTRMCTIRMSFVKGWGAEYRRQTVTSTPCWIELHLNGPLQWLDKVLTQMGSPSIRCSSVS

Vasopressin V1a receptor = Vasopressin V1a receptor (Homo sapiens, UniProt P37288); test: Counterscreen for Oxytocin Receptor (OXTR) agonists: Fluorescence-based cell-based high throughput dose response assay to identify agonists of the vasopressin 1 receptor (V1R). [Related pubchem assays: 2435 (Primary screen (OXTR agonists in singlicate)), 434991 (Counterscreen (V1R agonists in triplicate)), 2482 (Summary (OXTR agonists)) …; type: functional
Chain of Vasopressin V1a receptor (P37288 whole entry): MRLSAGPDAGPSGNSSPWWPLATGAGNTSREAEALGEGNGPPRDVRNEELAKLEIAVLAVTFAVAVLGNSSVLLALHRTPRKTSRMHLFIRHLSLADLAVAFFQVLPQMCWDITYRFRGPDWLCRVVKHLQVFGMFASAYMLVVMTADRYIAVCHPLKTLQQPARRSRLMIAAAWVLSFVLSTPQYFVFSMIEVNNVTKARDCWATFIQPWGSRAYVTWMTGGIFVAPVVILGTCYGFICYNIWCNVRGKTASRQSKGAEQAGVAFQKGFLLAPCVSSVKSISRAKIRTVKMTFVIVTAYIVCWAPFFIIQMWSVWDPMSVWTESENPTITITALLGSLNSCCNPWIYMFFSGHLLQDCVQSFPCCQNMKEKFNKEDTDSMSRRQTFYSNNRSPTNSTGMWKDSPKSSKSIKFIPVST

[26] = Luminescence Cell-Based Dose Retest to Confirm Inhibitors of Cancer Stem Cells. [Related pubchem assays (depositor defined):AID2717, AID2721]; type: functional; details: Homo sapiens
Oxytocin receptor = Oxytocin receptor (Homo sapiens, UniProt P30559); test: Fluorescence-based cell-based high throughput dose response assay for agonists of the Oxytocin Receptor (OXTR). [Related pubchem assays: 2435 (Primary screen (OXTR agonists in singlicate)), 434991 (Counterscreen (V1R agonists in triplicate)), 2482 (Summary (OXTR agonists)), 434963 (Confirmation screen (OXTR agonists in triplicate))]; type: functional
Cytochrome P450 2D6 = Cytochrome P450 2D6 (Homo sapiens, UniProt P10635); test: qHTS Assay for Inhibitors and Substrates of Cytochrome P450 2D6. [Related pubchem assays: 410 ]; type: ADME; details: read-out: Potency
Estrogen receptor = Estrogen receptor (Homo sapiens, UniProt P03372);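 also: potency for inhibiting coactivator peptide recruitment to the receptor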
Chain of Estrogen receptor (P03372 whole entry): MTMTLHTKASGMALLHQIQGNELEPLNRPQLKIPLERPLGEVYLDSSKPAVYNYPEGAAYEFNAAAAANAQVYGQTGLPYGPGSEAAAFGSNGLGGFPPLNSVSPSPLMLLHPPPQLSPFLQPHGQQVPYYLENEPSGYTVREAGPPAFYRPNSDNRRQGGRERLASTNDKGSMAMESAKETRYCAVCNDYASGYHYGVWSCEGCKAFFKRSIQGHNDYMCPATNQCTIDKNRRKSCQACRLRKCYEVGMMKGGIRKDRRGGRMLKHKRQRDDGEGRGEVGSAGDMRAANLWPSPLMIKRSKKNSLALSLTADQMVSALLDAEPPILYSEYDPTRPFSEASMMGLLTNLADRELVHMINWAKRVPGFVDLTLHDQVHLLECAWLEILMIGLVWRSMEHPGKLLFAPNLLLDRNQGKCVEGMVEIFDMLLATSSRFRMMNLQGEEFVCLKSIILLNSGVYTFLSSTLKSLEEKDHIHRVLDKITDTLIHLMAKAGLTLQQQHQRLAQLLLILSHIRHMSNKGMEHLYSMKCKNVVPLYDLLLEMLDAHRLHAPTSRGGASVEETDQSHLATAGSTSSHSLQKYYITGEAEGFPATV

[27] = biological target: T3, Calpain-2 catalytic subunit (Sus scrofa, UniProt P43367); test: m-calpain protease blockers, concentration series – biochemical, fluorogenic peptide substrate, dose response (AID 1420); type: functional
T3 sequence (P43367 whole entry): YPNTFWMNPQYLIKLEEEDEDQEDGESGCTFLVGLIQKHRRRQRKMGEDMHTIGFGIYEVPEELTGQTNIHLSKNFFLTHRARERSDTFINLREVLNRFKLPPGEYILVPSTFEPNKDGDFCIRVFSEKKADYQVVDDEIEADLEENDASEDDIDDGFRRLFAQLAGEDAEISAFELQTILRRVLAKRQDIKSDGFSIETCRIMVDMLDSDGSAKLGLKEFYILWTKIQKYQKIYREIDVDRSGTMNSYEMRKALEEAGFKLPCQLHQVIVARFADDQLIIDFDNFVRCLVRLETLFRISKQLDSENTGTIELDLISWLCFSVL

[28] = Luminescence Cell-Based Dose Confirmation HTS to Identify Inhibitors of Polyadenylation.; type: functional
[29] = NIH3T3 cell viability loss – ATP luminescence, mouse fibroblasts, counter-screen, dose response (AID 2010); type: functional, cell-based;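 also: cells exposed to compound for about 90 hours before reading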
[30] = viability of PTEN-deleted HCT116 cells – cell-based, HCT116 PTEN knockout, dose response (AID 1047); type: functional;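 also: HCT116 colon tumor cells with PTEN knocked out; cells exposed to compound for 60 hours before readout; potency for loss of cell viability measured by luminescence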
[31] = viability of HCT116 lacking mutant beta-catenin – cell-based, human colon tumor, dose response (AID 1045); type: functional;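 also: HCT116 colon tumor cells with beta catenin knocked out; cells exposed to compound for 60 hours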
[32] = NIH-3T3 fibroblast cytotoxicity, dose response, cytotoxicity control, cell-based, fluorescence, Alamar Blue, secondary assay (AID 2327); type: functional;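 also: NIH-3T3 mouse fibroblasts cultured with fluconazole at 8 µg/mL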
[33] = fluconazole-exposed Candida albicans growth modulators – fluorescence, retest, confirmation (AID 2467); type: functional, cell-based
[34] = Trypanosoma cruzi growth suppression in host cells – NIH3T3 host cells, beta-gal luminescence, confirmation (AID 2044); type: functional, cell-based;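 also: intracellular parasites grown in NIH/3T3 mouse fibroblasts as host cells; luminescent beta-galactosidase reporter signal from transgenic T. cruzi replicating inside host cells; inhibitors lower the luminescence signal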
[35] = Counterscreen for AddAB inhibitors: absorbance-based bacterial cell-based high throughput dose response assay for inhibitors of bacterial viability. [Related pubchem assays (depositor defined):AID435030, AID449728, AID449731, AID488942, AID488955, AID488956]; type: functional

Structure (SMILES): c1ccc(N2CCN(c3nc(-c4ccccn4)nc4ccccc34)CC2)cc1
- IC50 [1]: 6.28 µM (active)
- EC50 (Streptococcus): 8.15 µM (active)
- AC50 (INS1): 3.01 µM (active)
- EC50 [2]: 0.433 µM (active)
- IC50 [3]: 3.59 µM (active)
- IC50 [4]: 2.4 µM (active)
- IC50 [5]: > 22.3 µM (not active)
- IC50 [6]: 1.67 µM (active)

Structure (SMILES): O=C(OCC1OC(n2ncc(=O)[nH]c2=O)C(OC(=O)c2ccccc2)C1OC(=O)c1ccccc1)c1ccccc1 (stereo unspecified)
- EC50 [7]: 17.7 µM (active)
- IC50 [8]: 12.2 µM (active)
- EC50 [9]: > 120 µM (not active)
- EC50 [10]: 13.5 µM (active)

Structure (SMILES): O=C(O)c1ccc(OCc2cn3ccccc3n2)cc1
- EC50 (HEK293): > 35.4 µM (not active)
- IC50 [11]: > 83.2 µM (inactive)
- IC50 [12]: > 109 µM (inactive)
- EC50 [13]: > 35.4 µM (not active)
- EC50 [14]: > 35.4 µM (not active)

Structure (SMILES): CCc1nnc(NS(=O)(=O)c2ccc(N/C=C\C(=O)c3ccc4ccccc4c3)cc2)s1
- IC50 (Cysteine protease ATG4B): 11.1 µM (active)
- IC50 (Phospholipase A2): 9.13 µM (active)
- IC50 [15]: 29.7 µM (active)
- IC50 [16]: 62.9 µM (active)
- IC50 [17]: 5.19 µM (active)

Structure (SMILES): CC1CC(C)CN(c2cc(N(C)CCO)c([N+](=O)[O-])c3nonc23)C1 (stereo unspecified)
- IC50 [18]: 6.21 µM (active)
- EC50 [19]: > 100 µM (active)
- IC50 [20]: 35.9 µM (inactive)
- IC50 (Steroidogenic factor 1): 2.15 µM (active)

Structure (SMILES): CCOc1ccc(C(=O)NC(=S)Nc2ccc(NC(=O)C(C)C)cc2)cc1[N+](=O)[O-]
- IC50 [21]: 1.89 µM (active)
- IC50 [22]: > 111 µM (not active)

Structure (SMILES): COc1ccc2c(Cl)c(C(=O)Oc3ccccc3[N+](=O)[O-])sc2c1
- IC50 (NADPH oxidase 1): > 17 µM (not active)

Structure (SMILES): CC(C)(C)c1ccc(Oc2ccc(N)cn2)cc1 [LIMANTRAFIN]
- EC50 [23]: 1.05 µM (active)
- EC50 [7]: 5.68 µM (active)
- EC50 (cells): 2.75 µM (active)
- EC50 [24]: 0.803 µM (active)
- EC50 [9]: < 0.1 µM (active)
- EC50 [10]: < 0.1 µM (active)

Structure (SMILES): Oc1cc2c(cc1C(c1ccc(F)cc1)N1CCCC1)OCO2 (stereo unspecified)
- IC50 [25]: 23.3 µM (not active)

Structure (SMILES): CC1(C)CC[C@@]2(C(=O)O)C(C1)C1=CCC3[C@@]4(C)CC[C@H](O)C(C)(C)C4CC[C@@]3(C)[C@]1(C)C[C@H]2O (stereo partly specified)
- EC50 (Vasopressin V1a receptor): 2.33 µM (active)
- AC50 [26]: 7.33 µM (active)
- EC50 (Oxytocin receptor): 2.67 µM (active)

Structure (SMILES): CCN1C(C)=C(C(=O)OC)C(c2ccccc2)N2C(=O)[C@](O)(C(=O)OC)C(c3ccccc3)C(C(=O)c3ccccc3)=C12 (stereo partly specified)
- AC50 (Cytochrome P450 2D6): 3.16 µM (inconclusive)

Structure (SMILES): Cc1nnc(Oc2ccccc2F)c2ccccc12
- IC50 (Estrogen receptor): 30 µM (active)
- IC50 [27]: > 50 µM (not active)

Structure (SMILES): Cc1ccc2[nH]c(/C(C#N)=C\c3ccc([N+](=O)[O-])o3)nc2c1
- EC50 [28]: 5.85 µM (active)
- AC50 (INS1): 1.92 µM (active)
- EC50 [29]: > 60 µM (not active)
- EC50 [30]: 1.02 µM (active)
- EC50 [31]: 1.04 µM (active)
- EC50 [32]: 3.01 µM (inconclusive)
- EC50 [33]: 0.387 µM (active)
- EC50 [34]: 0.604 µM (active)
- IC50 [35]: > 119 µM (inactive)
